The values below come from patent US20220348590A1, “CYCLOOXYGENASE-2 INHIBITORS AND USES THEREOF” (The Board Institute, Inc., priority 2019, published 2022).

Data set [1] is described as follows: mouse plasma protein binding (PPB) assay. Format: in vitro ADME. The conditions noted are these: average, read-out: Mouse Plasma Protein Binding % Bound Avg (converted). The essentials:
(§1)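 Free fraction was measured in vitro as a readout of non-specific binding. Plasma binding used mouse, rat and human plasma; brain binding used mouse brain.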

The nature of another data set: PBS Solubility (no DMSO). Format: physicochemical. The conditions noted are these: aqueous buffer, thermodynamic from solid, average.
A short description of data set [2]: Rat Plasma Protein Stability (% Remaining). The following applies: average. Format: in vitro ADME.
The nature of data set [3]: human plasma protein binding (PPB) assay. Format: in vitro ADME. The conditions noted are these: average, read-out: Human Plasma Protein Binding % Bound Avg (converted). As for the experimental part:
We have adapted a previously reported cyclooxygenase enzymatic assay utilizing LCMS quantification of PGE2 as the product of COX-1 and COX2 catalyzed conversion of arachidonic acid to evaluate the binding properties of newly synthesized ligands [Cao, 2011]. These optimized and miniaturized (384-well plates) LCMS-based COX-1 and COX2 enzymatic assays enabled us to quickly evaluate newly synthesized ligands for COX2 binding affinity and selectivity vs COX-1. Using a shorter ligand-enzyme incubation time in the LCMS assay (2 minutes vs 10 minutes) also permitted us to prioritize ligands with faster binding kinetics. Considering the relatively slow on-rate kinetics of known coxibs, due to their 3-step binding mechanism [Marnett, 2009], we believe that optimizing this critical parameter will be key to the successful development of a COX2 PET tracer. Using these enzymatic assays, we have evaluated>200 newly synthesized ligands against COX2 and >20 ligands against COX-1. Another critical property necessary for a good PET radiotracer is to have low non-specific binding (NSB) to increase the free fraction and maximize the signal to noise ratio. This property can be evaluated using in-vitro protein binding assays, and we have now evaluated>50 newly synthesized ligands in mouse, rat and human plasma protein binding (PPB) assays as well as >15 ligands in a mouse brain protein binding (BPB) assay.

Data set [4] can be described thus: Mouse Plasma Protein Stability (% Remaining). The following applies: average. The class given is in vitro ADME.
Data set [5] can be described thus: rat plasma protein binding (PPB) assay. The class given is in vitro ADME. The following applies: average, read-out: Rat Plasma Protein Binding % Bound Avg (converted). The essentials:
as §1

The next data set deals with T1, ovine COX-1 (oCOX-1) (Ovis aries, UniProt P05979).
T1 construct: purchased Cayman Chemicals (Ann Arbor, Mich.)
T1 sequence (P05979 25-600): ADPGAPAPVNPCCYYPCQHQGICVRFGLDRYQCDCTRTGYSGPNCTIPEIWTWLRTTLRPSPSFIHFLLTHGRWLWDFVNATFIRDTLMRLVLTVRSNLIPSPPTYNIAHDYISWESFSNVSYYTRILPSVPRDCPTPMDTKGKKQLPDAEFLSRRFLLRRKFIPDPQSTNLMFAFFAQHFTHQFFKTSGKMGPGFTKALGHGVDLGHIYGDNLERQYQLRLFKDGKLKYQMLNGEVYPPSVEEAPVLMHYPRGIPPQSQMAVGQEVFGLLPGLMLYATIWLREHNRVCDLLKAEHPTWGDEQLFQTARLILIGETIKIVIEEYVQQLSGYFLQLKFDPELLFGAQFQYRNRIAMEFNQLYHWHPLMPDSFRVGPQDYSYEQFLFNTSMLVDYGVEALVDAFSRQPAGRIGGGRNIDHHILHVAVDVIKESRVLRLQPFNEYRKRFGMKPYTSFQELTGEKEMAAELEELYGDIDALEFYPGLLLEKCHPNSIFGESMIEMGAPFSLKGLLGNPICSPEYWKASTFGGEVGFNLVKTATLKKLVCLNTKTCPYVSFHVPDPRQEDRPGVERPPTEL
Put plainly: LCMS-based COX-1 enzymatic inhibition assay (PGE2 quantification). The class given is biochemical. The conditions noted are these: for COX1 10 minutes pge2/pge2d4 area ratio Avg. LLE / COX1 10 minutes pge2 area (counts) Avg. LLE: average LLE. In a few lines: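 Ovine COX-1 (0.1 μg) or human recombinant COX2 (0.2 μg) in 100 mM Tris.HCl pH 8.0 with hematin and epinephrine, preincubated with inhibitor 10 min at 37 °C. Reaction with 5 μM arachidonic acid stopped after 2 min with HCl; PGE2 quantified by LC-MS-MS. IC50 from 12 concentrations in triplicate.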

Data set [6] is described as follows: Human Microsome Stability. Format: in vitro ADME. The conditions noted are these: human microsomes.
Where [7] appears, read: 10 minutes, readout pge2/pge2d4 area ratio.
Setting [8] is: 10 minutes, readout pge2/pge2d4 area ratio, average, read-out: COX1 10 minutes pge2/pge2d4 area ratio Avg. IC50.
Setting [9] is: 10 minutes, readout pge2 area (counts).
Where [10] appears, read: 10 minutes, readout pge2 area (counts), average, read-out: COX1 10 minutes pge2 area (counts) Avg. IC50.

Values after ≈ are worked out from the molar mass of the structure shown. Where two headings read alike, the source gives them in different places.

As usually defined, the solubility is the dissolved amount per volume that the medium holds. With `CS(=O)(=O)c1ccc(-c2cccc(OCc3ccoc3)n2)cc1` [Compound 16], the fraction unbound in data set [1] is 0.011; in data set [3], 0.049; in data set [5] it was 0.031. Further, the solubility in the data set “PBS Solubility (no DMSO)” came to 10 µM (≈ 3.29 µg/mL). The “Rat Plasma Protein Stability % Remaining Avg” value in data set [2] was determined as 97.9%. Also, in data set [4], the “Mouse Plasma Protein Stability % Remaining Avg” value is recorded as 102%. The “COX1 10 minutes pge2/pge2d4 area ratio Avg. LLE” value at ovine COX-1 (oCOX-1) (setting [7]) turned out to be 1.139. The IC50 at ovine COX-1 (oCOX-1) (setting [8]) came out at 39.9 µM; on ovine COX-1 (oCOX-1) (setting [10]) it was 46.5 µM. Besides, the “COX1 10 minutes pge2 area (counts) Avg. LLE” value (from here on “COX1 10 minutes pge2 area”) on ovine COX-1 (oCOX-1) (setting [9]) is listed as 1.072. In addition, the “Human Microsome Stability % Remaining Avg” value in data set [6] stood at 24%.

`CS(=O)(=O)c1ccc(-c2cccc(NCc3cccs3)n2)cc1` [Compound 24]: the fraction unbound was 0.016 in data set [1], 0.019 in data set [3] and 0.025 in data set [5]. In “PBS Solubility (no DMSO)”, this molecule gave a solubility of 2.1 µM (≈ 0.723 µg/mL). The “Rat Plasma Protein Stability % Remaining Avg” value in data set [2] stood at 105.1%. Also, the “Mouse Plasma Protein Stability % Remaining Avg” value in data set [4] is given as 114.1%. In addition, the values for the IC50 on ovine COX-1 (oCOX-1) (setting [8]) and at ovine COX-1 (oCOX-1) (setting [10]) were 34.7 µM and 33.4 µM, respectively. Moreover, the “Human Microsome Stability % Remaining Avg” value in data set [6] was found to be 18%.

With `COc1ncc(NCc2cccs2)nc1-c1ccc(S(C)(=O)=O)cc1` [Compound 29], the values for the fraction unbound in data set [1], in data set [3] and in data set [5] were 0.025, 0.016 and 0.019, respectively. In “PBS Solubility (no DMSO)”, this molecule displayed a solubility of 2.8 µM (≈ 1.05 µg/mL). The “Rat Plasma Protein Stability % Remaining Avg” value in data set [2] is recorded as 114.5%. Moreover, the “Mouse Plasma Protein Stability % Remaining Avg” value in data set [4] was found to be 93.2%. Also, the IC50 against ovine COX-1 (oCOX-1) turned out to be 52 µM; on ovine COX-1 (oCOX-1) (setting [10]) it was 0.0484 µM. Moreover, the “COX1 10 minutes pge2/pge2d4 area ratio Avg. LLE” value at ovine COX-1 (oCOX-1) (setting [7]) is reported as 1.794. Moreover, the “COX1 10 minutes pge2 area” value on ovine COX-1 (oCOX-1) (setting [9]) is 3.31. Also, the “Human Microsome Stability % Remaining Avg” value in data set [6] came to 24%.

Turning to `CS(=O)(=O)c1ccc(-c2cccc(/C=C\c3ccoc3)n2)cc1` [Compound 35, 2-[(Z)-2-(furan-3-yl)ethenyl]-6-(4-methanesulfonylphenyl)pyr], the values for the fraction unbound in data set [1], in data set [3] and in data set [5] were 0.079, 0.024 and 0.052, respectively. Moreover, the solubility in the data set “PBS Solubility (no DMSO)” was determined as 37 µM (≈ 12 µg/mL). The “Rat Plasma Protein Stability % Remaining Avg” value in data set [2] is recorded as 94.1%. Also, the “Mouse Plasma Protein Stability % Remaining Avg” value in data set [4] amounted to 99.2%. The “COX1 10 minutes pge2/pge2d4 area ratio Avg. LLE” value on ovine COX-1 (oCOX-1) (setting [7]) turned out to be 1.089. The IC50 on ovine COX-1 (oCOX-1) (setting [8]) is 22.4 µM. Further, the “COX1 10 minutes pge2 area” value at ovine COX-1 (oCOX-1) (setting [9]) is listed as 0.724. Also, the “Human Microsome Stability % Remaining Avg” value in data set [6] is given as 19%.

As to `CS(=O)(=O)c1ccc(-c2cccc(NCc3ccco3)n2)cc1` [Compound 36], the fraction unbound in data set [1] was 0.118; in data set [3] it was 0.091; in data set [5], 0.087. Also, the solubility in “PBS Solubility (no DMSO)” is 27 µM (≈ 8.87 µg/mL). For the same molecule, in data set [2], the “Rat Plasma Protein Stability % Remaining Avg” value is listed as 102.8%. The “Mouse Plasma Protein Stability % Remaining Avg” value in data set [4] is 106%. Moreover, the figures for the IC50 on ovine COX-1 (oCOX-1) (setting [8]) and on ovine COX-1 (oCOX-1) (setting [10]) were 36.4 µM and 29.7 µM, respectively. Further, the “Human Microsome Stability % Remaining Avg” value in data set [6] was 17%.

For the molecule `CS(=O)(=O)c1ccc(-c2cccc(NCc3ccoc3)n2)cc1` [Compound 47, N-(furan-3-ylmethyl)-6-(4-(methylsulfonyl)phenyl)pyridin-2-amine], the fraction unbound in data set [1] is 0.07; in data set [3], 0.071; in data set [5], 0.068. The same molecule had a solubility in the data set “PBS Solubility (no DMSO)” of 88 µM (≈ 28.9 µg/mL). Besides, in data set [2], the “Rat Plasma Protein Stability % Remaining Avg” value was 105.1%. The “Mouse Plasma Protein Stability % Remaining Avg” value in data set [4] is given as 107.5%. For the same molecule, the “COX1 10 minutes pge2/pge2d4 area ratio Avg. LLE” value at ovine COX-1 (oCOX-1) (setting [7]) amounted to 1.461. Besides, the IC50 at ovine COX-1 (oCOX-1) (setting [8]) was found to be 38.8 µM. Besides, the “Human Microsome Stability % Remaining Avg” value in data set [6] amounted to 16%.
